Data reported in patent US20170218397A1, “C[…] GENE THERAPY VECTOR FOR […] CELL MO[…] ANTI HIV GENE THERAPY” (Texas Tech University System, priority 2014, published 2017).

Tests used:
HIV = experiment: Viability, HIV replication and cytopathic effect in transduced T cells infected with HIV with GCV; assay type: cell-based
Source text: FIG. 10 depicts photographic images of cells in accordance with experimental embodiments.

[1] = herpes (CMV) treatment in HIV infected patients; cited from earlier work

SMILES: Nc1nc(O)c2ncn(COC(CO)CO)c2n1 [Ganciclovir]
- viability of transduced T cells infected with HIV (HIV): increased viability
- HIV replication (HIV; in the presence of GCV): diminished HIV replication
- toxicity or side effects [1]: without significant toxicity or side effects
